The record followed here is patent US20250042911A1, “NOVEL BENZOPYRAN DERIVATIVE AND USE THEREOF” (SPARK BIOPHARMA, INC, priority 2021, published 2025).

For one assay, the system named is melanoma cells (B316F10). Put plainly: Tumor growth inhibition in C57BL/6 syngeneic mouse model implanted with melanoma cells. The following applies: 20 mg/kg orally once a day for 9 or 10 days, female C57BL/6 mice with implanted melanoma cells, tumor volume vs control group; for inhibition in vivo at 20 mg/kg: Mus musculus, po, read-out: TGI (%). The format is in vivo. As for the experimental part:
The tumor growth inhibition effect of benzopyrene derivatives was evaluated in a C57BL/6 mouse tumor model (syngeneic mouse model) in which melanoma cells (B316F10) derived from C57BL/6 mice are implanted.
After the quarantine and acclimation period was over, a cell suspension prepared with 5×10^5 cells/0.1 mL PBS was filled into a disposable syringe and administered in an amount of 0.1 mL PBS/head subcutaneously to the right back of healthy test animals (female C57BL/6, 7 weeks old) for implantation. After cell line implantation, general symptoms were observed once daily during the engraftment and growth period. Animals with no abnormalities in their health and whose tumor volume reached 50 to 100 mm^3 when measured with a digital caliper were selected. Then, based on tumor volume and body weight, the groups were separated so that the average tumor volume per group was 70 to 100 mm^3. Ten (10) animals were separated per group, and 20 mg/kg of benzopyran derivatives were administered orally once a day for 9 or 10 days. Tumor volume was measured once every 2 or 3 days.
The measured tumor volume of the test compound administered groups was compared with that of the control group and is represented in Table 2 as the tumor growth inhibition (TGI, %).

A further assay has as its system human M2 macrophages. Put plainly: Inhibition of human M2 macrophage activity, hCCL22 in culture supernatant by ELISA. It counts as cell-based. The note with it: hCCL22 secretion, THP-1 derived M2-like macrophages, compound present during 72 hours of differentiation. The procedure, abridged:
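THP-1 monocytes were differentiated with 100 ng/mL PMA for 24 h, then polarized with 25 ng/mL hIL-4 plus 25 ng/mL hIL-13 for 72 h. Compounds were present throughout the 72 h polarization. CCL22 in the supernatant was quantified by ELISA to give inhibition or EC50.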

pEC50: −log10 of the molar value. Counter-ions that a name gives are not always drawn.

In general, pEC50 refers to the EC50 on a negative log10 scale, so that one unit is a factor of ten. Take `CC1(C)Oc2cc(N3CCCC3)ccc2C2C1=CCn1c(=O)n(-c3ccc(C(=O)O)cc3)c(=O)n12` (stereo not drawn) [Example 44, 4-(7,7-dimethyl-1,3-dioxo-10-(pyrrolidin-1-yl)-5,12b-dihydro-1H,7H-chromeno[4,3-c][1,2,4]triazolo[1,2-a]pyridazin-2(3H)-yl)benzoic acid]: in the assay on melanoma cells (B316F10), the inhibition in vivo at 20 mg/kg is 25 to 66%. The pEC50 in the assay on human M2 macrophages was 5.02.
For `CCN(c1ccc2c(c1)OC(C)(C)C1=CCn3c(=O)n(-c4ccc(C(C)=O)cc4)c(=O)n3C12)C(C)C` (stereo not drawn) [Example 46, 2-(4-acetylphenyl)-10-(ethyl(isopropyl)amino)-7,7-dimethyl-5,12b-dihydro-1H,7H-chromeno[4,3-c][1,2,4]triazolo[1,2-a]pyridazine-1,3(2H)-dione], in that order: 25 to 66% and 5.15.
For `CC(=O)c1ccc(-n2c(=O)n3n(c2=O)C2C(=CC3)C(C)(C)Oc3cc(OC(=O)N(C)C)ccc32)cc1` (stereo not drawn) [Example 62, 2-(4-acetylphenyl)-7,7-dimethyl-1,3-dioxo-2,3,5,12b-tetrahydro-1H,7H-chromeno[4,3-c][1,2,4]triazolo[1,2-a]pyridazin-10-yl dimethylcarbamate], in that order: 32.3% and 4.38.
`CC(=O)C(=O)N1CCN(C(=O)Oc2ccc3c(c2)OC(C)(C)C2=CCn4c(=O)n(-c5ccc(C(C)=O)cc5)c(=O)n4C23)CC1` (stereo not drawn) [Example 68, 2-(4-acetylphenyl)-7,7-dimethyl-1,3-dioxo-2,3,5,12b-tetrahydro-1H,7H-chromeno[4,3-c][1,2,4]triazolo[1,2-a]pyridazin-10-yl 4-(2-oxopropanoyl)piperazine-1-carboxylate]: the inhibition in vivo at 20 mg/kg with melanoma cells (B316F10) fell in the range of 25 to 66%. This compound also showed a pEC50 in the assay on human M2 macrophages of 4.13.
As to `CC(=O)c1ccc(-n2c(=O)n3n(c2=O)C2C(=CC3)C(C)(C)Oc3cc(OP(=O)(O)O)ccc32)cc1` (stereo not drawn) [Example 70, disodium 2-(4-acetylphenyl)-7,7-dimethyl-1,3-dioxo-2,3,5,12b-tetrahydro-1H,7H-chromeno[4,3-c][1,2,4]triazolo[1,2-a]pyridazin-10-yl phosphate], the “TGI (%)” value in the assay on melanoma cells (B316F10) (phosphate) amounted to 26.2%. In the assay with human M2 macrophages, this compound had a pEC50 of 5.03.
As to `CC(=O)c1ccc(-n2c(=O)n3n(c2=O)C2C(=CC3)C(C)(C)Oc3cc(OC(=O)CN(C)C)ccc32)cc1` (stereo not drawn) [Example 72, 2-(4-acetylphenyl)-7,7-dimethyl-1,3-dioxo-2,3,5,12b-tetrahydro-1H,7H-chromeno[4,3-c][1,2,4]triazolo[1,2-a]pyridazin-10-yl dimethylglycinate hydrochloride], in the assay on melanoma cells (B316F10), the inhibition in vivo at 20 mg/kg fell in the range of 25 to 66%. In the assay with human M2 macrophages, this compound showed a pEC50 of 5.33.
For the compound `CC(=O)c1ccc(-n2c(=O)n3n(c2=O)C2C(=CC3)C(C)(C)Oc3cc(OC(=O)N4CCN(C(=O)[C@@H]5CCCN5)CC4)ccc32)cc1` (stereo partly drawn) [Example 82, 2-(4-acetylphenyl)-7,7-dimethyl-1,3-dioxo-2,3,5,12b-tetrahydro-1H,7H-chromeno[4,3-c][1,2,4]triazolo[1,2-a]pyridazin-10-yl 4-(L-prolyl)piperazine-1-carboxylate hydrochloride], the inhibition in vivo at 20 mg/kg in the assay with melanoma cells (B316F10) turned out to be 66.3%. Also, the pEC50 in the assay on human M2 macrophages was 4.16.
In the case of `CC(=O)c1ccc(-n2c(=O)n3n(c2=O)C2C(=CC3)C(C)(C)Oc3cc(OC(=O)N(C)CCC(=O)O)ccc32)cc1` (stereo not drawn) [Example 92, sodium 3-((((2-(4-acetylphenyl)-7,7-dimethyl-1,3-dioxo-2,3,5,12b-tetrahydro-1H,7H-chromeno[4,3-c][1,2,4]triazolo[1,2-a]pyridazin-10-yl)oxy)carbonyl)(methyl)amino)propanoate], the “TGI (%)” value with melanoma cells (B316F10) worked out at 25.5%.
